{"source": "patent US7220553B2", "about": "“Use of Russell's viper venom-induced plasma factor Xa activity to monitor the activity of factor Xa inhibitors” (Sanofi-Aventis Deutschland GmbH, priority 1999, dated 2007)", "format_in_all_cases": "biochemical", "key": {"plasma [1]": {"tested_on": "plasma", "test": "PT clotting time, RPR spiked in plasma", "experimental": "(§1) • 2. Follow the reaction kinetically for 5 min. • C) Calculation: Measure the initial velocity, however, ignore the lag phase. In general measure the initial rate of the linear portion of the time course. Use initial rates of clinical samples at different time points and then compared to the pre-dosing control to calculate % inhibition. Various concentrations of the compound RPR spiked in plasma were assayed for PT, APTT and PVVT prolongation. […] RVV-X induced clotting time (RVVT) assay could be conveniently used for monitoring the effect of RPR on patient's endogenous plasma FXa."}, "plasma [2]": {"tested_on": "plasma", "test": "APTT clotting time, RPR spiked in plasma", "experimental": "as §1"}, "endogenous plasma FXa": {"target": "T1, endogenous plasma FXa (Homo sapiens, UniProt P00742)", "T1 construct": "monitoring the effect of RPR on patient's endogenous plasma FXa; from tissue", "T1 sequence (P00742 235-488 limits assumed)": "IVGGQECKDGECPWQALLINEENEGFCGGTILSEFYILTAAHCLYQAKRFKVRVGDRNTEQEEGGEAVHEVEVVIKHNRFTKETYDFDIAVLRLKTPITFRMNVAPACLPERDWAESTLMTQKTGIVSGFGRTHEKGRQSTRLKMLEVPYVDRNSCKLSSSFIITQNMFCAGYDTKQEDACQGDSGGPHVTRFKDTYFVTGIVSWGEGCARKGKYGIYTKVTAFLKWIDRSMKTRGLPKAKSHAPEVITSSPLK", "T1 sequence (P00742 41-179 partner limits assumed)": "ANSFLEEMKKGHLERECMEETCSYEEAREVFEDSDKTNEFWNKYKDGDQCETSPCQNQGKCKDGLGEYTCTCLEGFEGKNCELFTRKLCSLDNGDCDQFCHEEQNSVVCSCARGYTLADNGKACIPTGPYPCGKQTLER", "test": "Russell's viper venom-induced clotting time (RVVT), RPR spiked in plasma", "experimental": "Dose-dependent clotting time prolongation curve from the compound methyl-3-(4′-N-oxopyridylphenoyl)-3-methyl-2-(m-amidinobenzyl)-propionate (hereinafter “RPR”) or the trifluoroacetate salt of RPR: • 1. Add 0.1 ml FXa buffer, 0.1 ml serial dilution of RPR, 0.1 ml normal pooled or patients plasma to the cuvette then 0.1 ml of RVV-Ca (MLA-800 dotter add this reagent automatically). • 2. Measure clotting time. • 3. Construct the dose-dependent clotting time prolongation curve. • 4. Calculate concentration for 2×RVVT\nas §1"}}, "data": [{"smiles": "COC(=O)C(Cc1cccc(C(=N)N)c1)C(C)C(=O)c1ccc(-c2cc[n+]([O-])cc2)cc1", "note": "(stereo not drawn) [RPR, methyl-3-(4′-N-oxopyridylphenoyl)-3-methyl-2-(m-amidinobenzyl)-propionate]", "values": [{"measurement": "fold-change of PT", "setting": "plasma [1]; RPR 50 μg/ml spiked in plasma", "result": 1.08, "unit": "fold"}, {"measurement": "fold-change of PT", "setting": "plasma [1]; RPR 166 μg/ml spiked in plasma", "result": 1.16, "unit": "fold"}, {"measurement": "fold-change of PT", "setting": "plasma [1]; RPR 322 μg/ml spiked in plasma", "result": 1.25, "unit": "fold"}, {"measurement": "fold-change of APTT", "setting": "plasma [2]; RPR 50 μg/ml spiked in plasma", "result": 1.08, "unit": "fold"}, {"measurement": "fold-change of APTT", "setting": "plasma [2]; RPR 166 μg/ml spiked in plasma", "result": 1.41, "unit": "fold"}, {"measurement": "fold-change of APTT", "setting": "plasma [2]; RPR 322 μg/ml spiked in plasma", "result": 1.5, "unit": "fold"}, {"measurement": "fold-change of RVVT", "setting": "endogenous plasma FXa; RPR 50 μg/ml spiked in plasma", "result": 1.33, "unit": "fold"}, {"measurement": "fold-change of RVVT", "setting": "endogenous plasma FXa; RPR 166 μg/ml spiked in plasma", "result": 2.66, "unit": "fold"}, {"measurement": "fold-change of RVVT", "setting": "endogenous plasma FXa; RPR 322 μg/ml spiked in plasma", "result": 4.41, "unit": "fold"}]}]}
